Assay results taken from the NIST ThermoML archive (doi:10.1016/j.fluid.2019.112241).
Several values for one entry are separate records, joined by “and”; a condition that tells them apart may be missing. Identical values can stand only once.

Settings: Liquid, Transpiration method

CCCCCCN(CCCCCC)C(C)=O [N,N-dihexylacetamide]
Settings	vapor or sublimation pressure [kPa]
319.4 K	0.0004
322.4 K	0.00053
325.5 K	0.00071
328.4 K	0.00091
329.2 K	0.00098
331.5 K	0.00123
332.4 K	0.0013
332.5 K	0.00136
335.5 K	0.0017
338.5 K	0.00228
342.2 K	0.00302
346.4 K	0.0043
349.5 K	0.0056
350.4 K	0.00612
353.3 K	0.00738
353.4 K	0.00736
356.3 K	0.00918
359.2 K	0.01148
360.3 K	0.01247
362.3 K	0.01466
364.2 K	0.01684

CC(=O)N(C)C [N,N-dimethylethanamide]
Settings	vapor or sublimation pressure
273.3 K	0.03543 kPa and 0.03607 kPa and 0.035 kPa
274.7 K	0.03924 kPa
275.9 K	0.04222 kPa
276.5 K	0.04528 kPa
276.9 K	0.04668 kPa
277.3 K	0.05063 kPa
278.2 K	0.05175 kPa
278.6 K	0.05303 kPa
279.7 K	0.058 kPa
281.3 K	0.06713 kPa and 0.07108 kPa
281.4 K	0.06481 kPa
281.9 K	0.06864 kPa
282.4 K	0.07295 kPa
283 K	0.07741 kPa
285.3 K	0.0977 kPa
285.8 K	0.09266 kPa
286.4 K	0.09668 kPa
287.3 K	0.1021 kPa
288.2 K	0.1121 kPa
288.3 K	0.1147 kPa
289.3 K	0.1307 kPa
290.2 K	0.1314 kPa
290.8 K	0.1301 kPa
291.2 K	0.1351 kPa
291.3 K	0.1465 kPa
291.8 K	0.1543 kPa
293.2 K	0.1571 kPa
293.3 K	0.1763 kPa
294.2 K	0.1744 kPa
296.2 K	0.2041 kPa
296.3 K	0.2 kPa
297.2 K	0.2169 kPa
297.3 K	0.2291 kPa
298.1 K	0.2275 kPa
298.2 K	0.2301 kPa
300.2 K	0.2612 kPa
300.7 K	0.2666 kPa and 0.2829 kPa
301.3 K	0.2983 kPa
302.2 K	0.3174 kPa
302.7 K	0.3279 kPa
303 K	0.3058 kPa
303.2 K	0.3248 kPa
304.7 K	0.3758 kPa
305.2 K	0.3538 kPa and 0.3944 kPa
305.6 K	0.3795 kPa
308 K	0.4422 kPa
308.1 K	0.4305 kPa
310.6 K	0.5041 kPa
313.1 K	0.6025 kPa
313.2 K	0.6035 kPa
315.7 K	0.711 kPa
316.4 K	0.7274 kPa
318.2 K	0.8426 kPa
320.8 K	0.9968 kPa
323.2 K	1.115 kPa
323.3 K	1.128 kPa
325.8 K	1.285 kPa
328.3 K	1.481 kPa

CCN(CC)C(C)=O [N,N-diethylacetamide]
Settings	vapor or sublimation pressure
293.2 K	0.05427 kPa
295.7 K	0.06498 kPa
298.1 K	0.07907 kPa
300.7 K	0.09611 kPa
303.3 K	0.1134 kPa
308.2 K	0.1595 kPa and 0.1564 kPa
310.6 K	0.1826 kPa
313.1 K	0.218 kPa
313.2 K	0.22 kPa
318.2 K	0.3145 kPa and 0.3097 kPa
323.1 K	0.4179 kPa
323.3 K	0.4212 kPa
325.7 K	0.4988 kPa
328.2 K	0.5921 kPa and 0.5695 kPa
330.7 K	0.6838 kPa
333.1 K	0.8078 kPa
333.2 K	0.771 kPa
335.7 K	0.882 kPa
338.3 K	1.032 kPa

CCCCN(CCCC)C(C)=O [N,N-dibutylacetamide]
Settings	vapor or sublimation pressure
291.8 K	0.0013 kPa
298.8 K	0.00247 kPa
300.9 K	0.00292 kPa
301.8 K	0.00324 kPa
303.9 K	0.00402 kPa
306.6 K	0.00505 kPa
306.7 K	0.00514 kPa
308.8 K	0.00635 kPa
312.5 K	0.00844 kPa
315.7 K	0.0107 kPa
317.5 K	0.01304 kPa
320.4 K	0.01631 kPa
320.7 K	0.01642 kPa
320.8 K	0.01653 kPa
322.6 K	0.01907 kPa
323.6 K	0.02074 kPa
325.6 K	0.02381 kPa
327.2 K	0.02708 kPa
327.6 K	0.0289 kPa
330.6 K	0.03472 kPa and 0.03551 kPa
333.3 K	0.04451 kPa
334.8 K	0.04701 kPa
335.7 K	0.05254 kPa
337.5 K	0.05938 kPa
340.7 K	0.0733 kPa
343.6 K	0.09061 kPa
